Experimental data published in ChEMBL document CHEMBL4304793, “Evaluation of a Series of β-Secretase 1 Inhibitors Containing Novel Heteroaryl-Fused-Piperazine Amidine Warheads” (ACS Med Chem Lett, 2019).

Test: Dissociation constant, pKa of compound
Assay type: physicochemical

`C[C@@]1(c2cc(NC(=O)c3ccc(C#N)cn3)ccc2F)Cn2cncc2C(N)=N1` showed a pKa of 9.

In the case of `C[C@@]1(c2cc(NC(=O)c3ccc(C#N)cn3)ccc2F)Cn2ccnc2C(N)=N1`, the pKa is reported as 8.2.

For `C[C@@]1(c2cc(NC(=O)c3ccc(C#N)cn3)ccc2F)Cn2ncnc2C(N)=N1`, the pKa was 6.5.

For `C[C@@]1(c2cc(NC(=O)c3ccc(C#N)cn3)ccc2F)Cn2nncc2C(N)=N1`, the pKa was 7.1.

Compound `C[C@@]1(c2cc(NC(=O)c3ccc(C#N)cn3)ccc2F)Cn2cccc2C(N)=N1` has a pKa of 10.3.

With `C[C@@]1(c2cccc(NC(=O)c3ccc(C#N)cn3)c2)Cn2nccc2C(N)=N1` the pKa was 8.5.

Compound `C[C@@]1(c2cc(NC(=O)c3ccc(C#N)cn3)ccc2F)Cn2nnnc2C(N)=N1` has a pKa of 5.1.

Compound `C[C@@]1(c2cc(NC(=O)c3ccc(C#N)cn3)ccc2F)Cn2cnnc2C(N)=N1` has a pKa of 6.4.
